Experimental data: patent US12115174B2, “Dendrimer formulations” (AstraZeneca AB, priority 2018, dated 2024)

What was measured:
Type in all cases: in vivo
[1] = system: Cleaved poly ADP ribose polymerase (PARP); test: Cleaved PARP response (cell death) after a single dose; settings: Compound A in HP-β-CD formulation
Description: Cleaved poly ADP ribose polymerase (PARP) response was used as a measure of cell death.
Additionally, cell death (apoptosis) was measured using cleaved PARP (FIG. 4).

[2] = system: human acute lymphoblastic leukemia cells (RS4:11); test: RS4:11 Acute Lymphoblastic Leukemia xenograft efficacy in SCID mice
Description: The efficacy evaluation of the vehicle (phosphate buffer saline), Compound A (formulated in 30% HP-β-CD, pH 4), Compound 1 in PBS (equivalent to 10 mg/kg Compound A) and Compound 2 in PBS (equivalent to 10 mg/kg and 30 mg/kg Compound A) is shown.
The efficacy evaluation of the vehicle (phosphate buffer saline, PBS), a formulation of Compound A in 30% HP-β-CD, Compound 1 in PBS (equivalent to 20 mg/kg Compound A) and Compound 2 in PBS (equivalent to 20 mg/kg Compound A) and is shown.
Preparation of Compounds 1 and 2 PBS formulations for dosing RS4:11 efficacy study: The appropriate amounts of Compound 1 and 2 were weighed into a volumetric flask. 10 mL Dulbecc's Phosphate Buffered Saline (PBS) was added and formulations were then stirred until the compound dissolved entirely.
The appropriate amount of Compound A was weighed into a 10 mL volumetric flask. 8 mL of 30% w/v HP-β-CD vehicle was then added and the formulation stirred. 1M MSA was added dropwise until the pH was reduced to about 2. The formulation was then stirred until the compound dissolved entirely. The pH was measured and adjusted to pH 4, dropwise using 1M MSA or NaOH. The formulation was then stirred to make sure a clear solution (with possible haze) was obtained. The volume was then made up to 10 mL with 30% w/v HP-β-CD vehicle and stirred. The final pH was measured and recorded and the formulation filtered through a […] filter prior to administration. Other formulation strengths were prepared by diluting the Compound A in 30% w/v HP-β-CD with an appropriate amount of 30% w/v HP-β-CD vehicle.
Efficacy of Compounds 1 and 2 in RS4:11 Xenograft Model: 5×10^6 RS4; 11 cells in a total volume of 100 μL were inoculated subcutaneously at the mouse right flank. […]
(§1) On specific day, for each treated group, calculate Inhibition value by formula: Inhibition %=(CG-TG)*100/(CG-1), in which “CG” means the geometric mean of rtv of the control group and “TG” means the Geometric Mean of Relative Tumor Volume (rtv) of the treated group. “CG” should use the corresponding control group of the treated group when calculated. […]

SuDHL-4 = SuDHL-4 xenograft model in SCID mice, alone and with rituximab
Description: Formulations of Compound 1 for SuDHL-4 efficacy study: Compound 1 was formulated in a pH 5 citrate/phosphate buffer diluted 1:10 with 5% glucose and containing 1% w/v Kolliphor HS-15, at concentrations up to 105 mg/mL of Compound 1 (equivalent to up to 30 mg/mL of Compound A concentration).
Formulations of Compound 2 for dosing in SuDHL-4 efficacy study: Compound 2 was formulated in a pH 4 citrate/phosphate buffer diluted 1:10 with 5% Glucose and containing 1% w/v Kolliphor HS-15, at concentrations up to 121 mg/mL of Compound 2 (equivalent of up to 30 mg/mL of Compound A concentration).
Compounds 1 and 2 enhance inhibition of tumor growth by rituximab in SuDHL-4 Xenograft Model in SCID Mice: The SuDHL-4 xenograft model was used to test the ability of Compounds 1 and 2 to enhance the activity of rituximab in inhibiting tumor growth. […]
Tumor sizes were measured 2 times a week and calculated as: Tumor Volume=(A×B^2)/2 where A and B are the tumor length and width (in mm), respectively.
as §1

CN(CCO)CC[C@H](CCSc1ccccc1)CNc1ccc(S(=O)(=O)NC(=O)c2ccc(N3CCC([C@@H](O)c4ccccc4-c4ccc(Cl)cc4)CC3)cc2)cc1S(=O)(=O)C(F)(F)F [Compound A, reference compound]
time of cleaved PARP induction post treatment [1]: immediately post treatment 1 and 3 hr | % Inhibition Day (47) ([2]; Compound A 5 mg/kg): >100% | % Regression Day(47) ([2]; Compound A 5 mg/kg): 90% | regression ([2]; Compound A HP-β-CD 10 mg/kg IV once): 90%

rituximab [reference compound]
T − C (SuDHL-4; rituximab 10 mg/kg alone): >16 days | % Inhibition (TIC) Day(41) (SuDHL-4; rituximab 10 mg/kg i.p. once a week for 5 weeks): 75.27%
